Laboratory results taken from ChEMBL document CHEMBL3885881, “DrugMatrix”.

Species: Rattus norvegicus
Assay: DrugMatrix - Regimen: Daily Repeat
Type: toxicity, organism-based, Sprague-Dawley
Parameters: regimen Daily Repeat, gender Male, age 6-8 weeks
Conditions: in vivo, po, route oral GAVAGE, vehicle 100 % WATER; for ERYTHROCYTE COUNT / HEMATOCRIT / HEMOGLOBIN / LEUKOCYTE COUNT / MEAN CORPUSCULAR HEMOGLOBIN / MEAN CORPUSCULAR HEMOGLOBIN CONCENTRATION / MEAN CORPUSCULAR VOLUME: tissue Blood; for ALANINE AMINOTRANSFERASE / ALBUMIN / ALKALINE PHOSPHATASE / ASPARTATE AMINOTRANSFERASE / BLOOD UREA NITROGEN / CARBON DIOXIDE / CHLORIDE / CHOLESTEROL / CREATINE PHOSPHOKINASE / CREATININE / GLUCOSE / LACTATE DEHYDROGENASE / LIPASE / PHOSPHORUS / POTASSIUM / SODIUM / TOTAL BILIRUBIN / TOTAL PROTEIN / URIC ACID: tissue Plasma
[1] = 0 mg/kg, 72 h, dose level Control, time 3 day
[2] = 0 mg/kg, 120 h, dose level Control, time 5 day
[3] = 70 mg/kg, 72 h, dose level Low, time 3 day
[4] = 70 mg/kg, 120 h, dose level Low, time 5 day

COc1cc2c(N3CCN(C(=O)Nc4ccc(OC(C)C)cc4)CC3)ncnc2cc1OCCCN1CCCCC1 [TANDUTINIB]
ERYTHROCYTE COUNT [1]: 6.09 x10E6/uL
HEMATOCRIT [1]: 42.62%
HEMOGLOBIN [1]: 13.07 G/DL
LEUKOCYTE COUNT [1]: 13.95 x10E3/uL
MEAN CORPUSCULAR HEMOGLOBIN [1]: 21.47 pg
MEAN CORPUSCULAR HEMOGLOBIN CONCENTRATION [1]: 30.62 G/DL
MEAN CORPUSCULAR VOLUME [1]: 70.05 fL
ALANINE AMINOTRANSFERASE [1]: 47.67 u/L
ALBUMIN [1]: 3.8 G/DL
ALKALINE PHOSPHATASE [1]: 369 u/L
ASPARTATE AMINOTRANSFERASE [1]: 86.17 u/L
BLOOD UREA NITROGEN [1]: 16.33 mg/dL
CARBON DIOXIDE [1]: 37.33 mmol/L
CHLORIDE [1]: 104.83 MEQ/L
CHOLESTEROL [1]: 79.83 mg/dL
CREATINE PHOSPHOKINASE [1]: 392.83 u/L
CREATININE [1]: 0.68 mg/dL
GLUCOSE [1]: 153.33 mg/dL
LACTATE DEHYDROGENASE [1]: 426.17 u/L
LIPASE [1]: 11.67 u/L
PHOSPHORUS [1]: 11 mg/dL
POTASSIUM [1]: 6.72 MEQ/L
SODIUM [1]: 146.67 MEQ/L
TOTAL BILIRUBIN [1]: 0.55 mg/dL
TOTAL PROTEIN [1]: 6.32 G/DL
URIC ACID [1]: 0.0167 mg/dL
ERYTHROCYTE COUNT [2]: 6.93 x10E6/uL
HEMATOCRIT [2]: 46.82%
HEMOGLOBIN [2]: 14.23 G/DL
LEUKOCYTE COUNT [2]: 13.43 x10E3/uL
MEAN CORPUSCULAR HEMOGLOBIN [2]: 20.55 pg
MEAN CORPUSCULAR HEMOGLOBIN CONCENTRATION [2]: 30.38 G/DL
MEAN CORPUSCULAR VOLUME [2]: 67.62 fL
ALANINE AMINOTRANSFERASE [2]: 44.67 u/L
ALBUMIN [2]: 3.8 G/DL
ALKALINE PHOSPHATASE [2]: 417.83 u/L
ASPARTATE AMINOTRANSFERASE [2]: 83 u/L
BLOOD UREA NITROGEN [2]: 15.33 mg/dL
CARBON DIOXIDE [2]: 38.83 mmol/L
CHLORIDE [2]: 98.17 MEQ/L
CHOLESTEROL [2]: 66.83 mg/dL
CREATINE PHOSPHOKINASE [2]: 383.17 u/L
CREATININE [2]: 0.72 mg/dL
GLUCOSE [2]: 156.5 mg/dL
LACTATE DEHYDROGENASE [2]: 519.67 u/L
LIPASE [2]: 4.83 u/L
PHOSPHORUS [2]: 11.07 mg/dL
POTASSIUM [2]: 6.03 MEQ/L
SODIUM [2]: 138 MEQ/L
TOTAL BILIRUBIN [2]: 0.55 mg/dL
TOTAL PROTEIN [2]: 6.3 G/DL
URIC ACID [2]: 0.0833 mg/dL
ERYTHROCYTE COUNT [3]: 6.43 x10E6/uL
HEMATOCRIT [3]: 44.4%
HEMOGLOBIN [3]: 13.2 G/DL
LEUKOCYTE COUNT [3]: 8.32 x10E3/uL
MEAN CORPUSCULAR HEMOGLOBIN [3]: 20.5 pg
MEAN CORPUSCULAR HEMOGLOBIN CONCENTRATION [3]: 29.63 G/DL
MEAN CORPUSCULAR VOLUME [3]: 69.13 fL
ALANINE AMINOTRANSFERASE [3]: 47 u/L
ALBUMIN [3]: 3.87 G/DL
ALKALINE PHOSPHATASE [3]: 436.67 u/L
ASPARTATE AMINOTRANSFERASE [3]: 80.67 u/L
BLOOD UREA NITROGEN [3]: 15.33 mg/dL
CARBON DIOXIDE [3]: 37.33 mmol/L
CHLORIDE [3]: 107.67 MEQ/L
CHOLESTEROL [3]: 84.67 mg/dL
CREATINE PHOSPHOKINASE [3]: 198 u/L
CREATININE [3]: 0.67 mg/dL
GLUCOSE [3]: 163.33 mg/dL
LACTATE DEHYDROGENASE [3]: 277.33 u/L
LIPASE [3]: 14.33 u/L
PHOSPHORUS [3]: 9.63 mg/dL
POTASSIUM [3]: 6.33 MEQ/L
SODIUM [3]: 149.67 MEQ/L
TOTAL BILIRUBIN [3]: 0.47 mg/dL
TOTAL PROTEIN [3]: 6.2 G/DL
URIC ACID [3]: 0.0333 mg/dL
ERYTHROCYTE COUNT [4]: 6.62 x10E6/uL
HEMATOCRIT [4]: 44.77%
HEMOGLOBIN [4]: 13.67 G/DL
LEUKOCYTE COUNT [4]: 11.49 x10E3/uL
MEAN CORPUSCULAR HEMOGLOBIN [4]: 20.67 pg
MEAN CORPUSCULAR HEMOGLOBIN CONCENTRATION [4]: 30.6 G/DL
MEAN CORPUSCULAR VOLUME [4]: 67.7 fL
ALANINE AMINOTRANSFERASE [4]: 36.33 u/L
ALBUMIN [4]: 3.8 G/DL
ALKALINE PHOSPHATASE [4]: 323.33 u/L
ASPARTATE AMINOTRANSFERASE [4]: 69 u/L
BLOOD UREA NITROGEN [4]: 14.67 mg/dL
CARBON DIOXIDE [4]: 34.67 mmol/L
CHLORIDE [4]: 100.67 MEQ/L
CHOLESTEROL [4]: 73 mg/dL
CREATINE PHOSPHOKINASE [4]: 199 u/L
CREATININE [4]: 0.67 mg/dL
GLUCOSE [4]: 164.33 mg/dL
LACTATE DEHYDROGENASE [4]: 327 u/L
LIPASE [4]: 5.67 u/L
PHOSPHORUS [4]: 11.33 mg/dL
POTASSIUM [4]: 5.83 MEQ/L
SODIUM [4]: 139.67 MEQ/L
TOTAL BILIRUBIN [4]: 0.43 mg/dL
TOTAL PROTEIN [4]: 6.17 G/DL
URIC ACID [4]: 0.27 mg/dL
